Source: patent publication US9018208B2, “Heterocycles as potassium channel modulators” (Icagen Inc., priority 2007, dated 2015)
Where two headings read alike, the source gives them in different places.

System: SH-SY5Y M-currents (KCNQ2, KCNQ3 and KCNQ5)
Assay: SH-SY5Y native cell line FLIPR assay (voltage-sensitive dye DiBAC)
Assay type: cell-based, mouse neuroblastoma, rat glioma hybrid cell line
Conditions: SH-SY5Y native cell line, read-out: SH-SY5Y EC50
From the text: SH-SY5Y cells, a mouse neuroblastoma, rat glioma hybrid cell line, functionally express M-currents (Robbins et al., J. Physiol. 451: 159-85 (1992). SH-SY5Y M-currents are likely comprised, at least in part, of KCNQ2, KCNQ3 and KCNQ5, since these genes are reportedly robustly expressed in differentiated SH-SY5Y cells (Selyanko et al., J. Neurosci. 19(18): 7742-56 (1999); Schroeder et al., J. Biol. Chem. 275(31): 24089-95 (2000)) and KCNQ3 dominant-negative constructs reduce M-current density in these cells (Selyanko et al., J. Neurosci. 22(5): RC212 (2002).
SH-SY5Y were maintained in DMEM (high glucose) supplemented with 10% fetal bovine serum, 0.05 mM pyridoxine, 0.1 mM hypoxanthine, 400 nM aminopterin, […], 50 μgml^−1 gentamycin and 10 mM HEPES, in an incubator at 37° C. with a humidified atmosphere of 5% CO2. Cells were plated in 96 well plates differentiated by addition of 10 μM PGE1 and 50 μM isomethylbutylxanthine to the growth media prior to study.
Differentiated SH-SY5Y cells were loaded with voltage-sensitive dye by incubation in Earls Balanced Salt Solution (EBSS) containing […] DiBAC for 1 h. Following loading, drug solution containing […] DiBAC was added to each well. Changes in fluorescence were measured every 30 s for 25 min. The maximum change in fluorescence was measured and expressed as a percentage of the maximum response obtained in the presence of a positive control agent.

Row | EC50 (FLIPR assay, Table 2) [nM] | Molecule | other results
1 | < 500 | Cc1ccc(-c2c(NC(=O)CC(C)(C)C)nc3ccc(F)cn23)cc1Cl [Compound 258, N-(3-(3-chloro-4-methylphenyl)-6-fluoroimidazo[1,2-a]pyridin-2-yl)-3,3-dimethylbutanamide] | –
2 | 500 to 3000 | CC(C)(C)CC(=O)Nc1nc2ccc(C#N)cn2c1-c1ccc(F)cc1 [Compound 159, N-(6-cyano-3-(4-fluorophenyl)imidazo[1,2-a]pyridin-2-yl)-3,3-dimethylbutanamide] | –
3 | < 500 | O=C(CC1CCCC1)Nc1nc2ccc(F)cn2c1-c1ccc(OC(F)(F)F)c(F)c1 [Compound 311, 2-cyclopentyl-N-(6-fluoro-3-(3-fluoro-4-(trifluoromethoxy)phenyl)imidazo[1,2-a]pyridin-2-yl)acetamide] | –
4 | 500 to 3000 | CC(C(=O)Nc1nc2ccc(F)cn2c1-c1ccc(F)cc1)c1ccccc1 (stereo not shown) [Compound 109, N-(6-fluoro-3-(4-fluorophenyl)imidazo[1,2-a]pyridin-2-yl)-2-phenylpropanamide] | –
5 | < 500 | O=C(CC(F)(F)F)Nc1nc2ccc(F)cn2c1-c1ccc(OC(F)(F)F)cc1 [Compound 252, 3,3,3-trifluoro-N-(6-fluoro-3-(4-(trifluoromethoxy)phenyl)imidazo[1,2-a]pyridin-2-yl)propanamide] | –
6 | 500 to 3000 | CC(C)(C#N)CC(=O)Nc1nc2ccc(F)cn2c1-c1ccc(OC(F)(F)F)cc1 [Compound 218, 3-cyano-N-(6-fluoro-3-(4-(trifluoromethoxy)phenyl)imidazo[1,2-a]pyridin-2-yl)-3-methylbutanamide] | –

The remaining lines, values behind:

Row | Molecule | EC50 (FLIPR assay, Table 2) [nM] | other results
7 | CC(C)(C)CCC(=O)Nc1nc2ccc(F)cn2c1-c1cccc(OC(F)(F)F)c1 [Compound 279, N-(6-fluoro-3-(3-(trifluoromethoxy)phenyl)imidazo[1,2-a]pyridin-2-yl)-4,4-dimethylpentanamide] | < 500 | –
8 | Cc1ccc2nc(NC(=O)CC(C)C(F)(F)F)c(-c3nc4ccccc4s3)n2n1 (stereo not shown) [Compound 386, N-(3-(benzo[d]thiazol-2-yl)-6-methylimidazo[1,2-b]pyridazin-2-yl)-4,4,4-trifluoro-3-methylbutanamide] | – | EC50 (FLIPR assay (Table 3)): 3000 to 10000 nM
9 | O=C(Cc1ccc(F)cc1)Nc1nc2ncc(Cl)cn2c1-c1ccc(C(F)(F)F)cc1 [Compound 317, N-(6-chloro-3-(4-(trifluoromethyl)phenyl)imidazo[1,2-a]pyrimidin-2-yl)-2-(4-fluorophenyl)acetamide] | 500 to 3000 | –
10 | O=C(Nc1nc2ccc(F)cn2c1-c1ccccc1)C(F)(F)F [Compound 91, 2,2,2-trifluoro-N-(6-fluoro-3-phenylimidazo[1,2-a]pyridin-2-yl)acetamide] | 3000 to 10000 | –
11 | CC(C)(C)NC(=O)Nc1nc2ccc(F)cn2c1-c1ccc(C(F)(F)F)cc1 [Compound 215, 1-tert-butyl-3-(6-fluoro-3-(4-(trifluoromethyl)phenyl)imidazo[1,2-a]pyridin-2-yl)urea] | 500 to 3000 | –
12 | O=C(Cc1ccc(F)cc1)Nc1nc2ccc(F)cn2c1-c1cccc(C(F)(F)F)c1 [Compound 164, N-(6-fluoro-3-(3-(trifluoromethyl)phenyl)imidazo[1,2-a]pyridin-2-yl)-2-(4-fluorophenyl)acetamide] | < 500 | –
13 | CC(CC(=O)Nc1nc2ccc(F)cn2c1-c1ccc(F)cn1)C(F)(F)F (stereo not shown) [Compound 369, 4,4,4-trifluoro-N-(6-fluoro-3-(5-fluoropyridin-2-yl)imidazo[1,2-a]pyridin-2-yl)-3-methylbutanamide] | – | EC50 (FLIPR assay (Table 3)): 3000 to 10000 nM
14 | CC(CC(=O)Nc1nc2ccc(F)cn2c1-c1cc(C(F)(F)F)ccn1)C(F)(F)F (stereo not shown) [Compound 401, 4,4,4-trifluoro-N-(6-fluoro-3-(4-(trifluoromethyl)pyridin-2-yl)imidazo[1,2-a]pyridin-2-yl)-3-methylbutanamide] | – | EC50 (FLIPR assay (Table 3)): 500 to 3000 nM
15 | 2-(3,4-dichlorophenyl)-N-(6-fluoro-3-(4-fluorophenyl)imidazo yl)acetamide [Compound 142] | < 500 | –
16 | CC(C)(C)OCCC(=O)Nc1nc2ccc(F)cn2c1-c1cccc(C(F)(F)F)c1 [Compound 287, 3-tert-butoxy-N-(6-fluoro-3-(3-(trifluoromethyl)phenyl)imidazo[1,2-a]pyridin-2-yl)propanamide] | 500 to 3000 | –
17 | CC(C)C(C)C(=O)Nc1nc2ccc(F)cn2c1-c1ccc(OC(F)(F)F)c(F)c1 (stereo not shown) [Compound 312, N-(6-fluoro-3-(3-fluoro-4-(trifluoromethoxy)phenyl)imidazo[1,2-a]pyridin-2-yl)-2,3-dimethylbutanamide] | < 500 | –
18 | O=C(CC1CC1)Nc1nc2ccc(F)cn2c1-c1ccc(F)cc1 [Compound 129, 2-cyclopropyl-N-(6-fluoro-3-(4-fluorophenyl)imidazo[1,2-a]pyridin-2-yl)acetamide] | 3000 to 10000 | –
19 | CC(=O)O[C@H](C(=O)Nc1nc2ccc(F)cn2c1-c1ccc(C(F)(F)F)cc1)C(C)(C)C [Compound 340, (S)-1-(6-fluoro-3-(4-(trifluoromethyl)phenyl)imidazo[1,2-a]pyridin-2-ylamino)-3,3-dimethyl-1-oxobutan-2-yl acetate] | 3000 to 10000 | –
20 | Cc1ccc2nc(NC(=O)Cc3ccc(F)cc3)c(-c3nccs3)n2n1 [Compound 390, 2-(4-fluorophenyl)-N-(6-methyl-3-(thiazol-2-yl)imidazo[1,2-b]pyridazin-2-yl)acetamide] | – | EC50 (FLIPR assay (Table 3)): 3000 to 10000 nM
21 | O=C(Cc1ccc(F)cc1)Nc1nc2ncc(Cl)cn2c1-c1cccc(Cl)c1 [Compound 320, N-(6-chloro-3-(3-chlorophenyl)imidazo[1,2-a]pyrimidin-2-yl)-2-(4-fluorophenyl) acetamide] | 3000 to 10000 | –
22 | CC(C)(C)CC(=O)Nc1nc2ccc(F)cn2c1-c1cccc(C(F)(F)F)n1 [Compound 361, N-(6-fluoro-3-(6-(trifluoromethyl)pyridin-2-yl)imidazo[1,2-a]pyridin-2-yl)-3,3-dimethylbutanamide] | – | EC50 (FLIPR assay (Table 3)): < 500 nM
23 | O=C(Cc1ccc(F)cc1)Nc1nc2ccc(F)cn2c1-c1nccs1 [Compound 384, N-(6-fluoro-3-(thiazol-2-yl)imidazo[1,2-a]pyridin-2-yl)-2-(4-fluorophenyl)acetamide] | – | EC50 (FLIPR assay (Table 3)): 500 to 3000 nM
24 | Cc1ccc2nc(NC(=O)CC(C)(C)C)c(-c3cccc(OC(F)(F)F)c3)n2n1 [Compound 305, 3,3-dimethyl-N-(6-methyl-3-(3-(trifluoromethoxy)phenyl)imidazo[1,2-b]pyridazin-2-yl)butanamide] | < 500 | –
25 | Cc1ccc2nc(NC(=O)CC(C)(C)C)c(-c3nccs3)n2n1 [Compound 387, 3,3-dimethyl-N-(6-methyl-3-(thiazol-2-yl)imidazo[1,2-b]pyridazin-2-yl)butanamide] | – | EC50 (FLIPR assay (Table 3)): 3000 to 10000 nM
26 | CC(C)CCc1c(NC(=O)Cc2ccccc2)nc2ccc(C(F)(F)F)cn12 [Compound 36, N-(3-isopentyl-6-(trifluoromethyl)imidazo[1,2-a]pyridin-2-yl)-2-phenylacetamide] | – | EC50 (FLIPR assay, Table 1): < 500 nM
27 | CC(C)(C)Cc1c(NC(=O)Cc2cccc(OC(F)(F)F)c2)nc2ccc(C(F)(F)F)cn12 [Compound 25, N-(3-neopentyl-6-(trifluoromethyl)imidazo[1,2-a]pyridin-2-yl)-2-(3-(trifluoromethoxy)phenyl)acetamide] | – | EC50 (FLIPR assay, Table 1): < 500 nM
28 | CC(C)(C)Cc1c(NC(=O)CC2CCCC2)nc2ccc(C(F)(F)F)cn12 [Compound 72, 2-cyclopentyl-N-(3-neopentyl-6-(trifluoromethyl)imidazo[1,2-a]pyridin-2-yl)acetamide] | – | EC50 (FLIPR assay, Table 1): < 500 nM
